Measured values from US20250325492A1, “IONIZABLE LIPIDS, LIPID NANOPARTICLES FOR MRNA DELIVERY AND METHODS OF MAKING THE SAME” (University of Cincinnati, priority 2022, published 2025).

Tests used:
[1] = tested on: human Jurkat T cells; assay: In vitro mRNA transfection efficiency (eGFP fluorescence), flow cytometry; assay type: cell-based; conditions: 44-hour incubation; for transfection efficiency: 100 ng mRNA per well, eGFP fluorescence, FIG. 17B; for transfection efficiency, result in words: compared with the controls
Method: (§1) Flow cytometry was used to determine in vitro cellular uptake and transfection efficacy in human Jurkat T cells. The cells were seeded in a 96-well plate at a density of 40,000 cells/well. Different formulations containing 100 ng of mRNA were added to each well and were incubated for 44 hours at 37° C. The cells were washed and centrifuged at 300×g. The supernatant was discarded. After the cells were diluted in PBS, flow cytometry analysis was performed to quantify the amounts of cellular uptake and transfection efficiency.
(§2) LNPs with different compositions were tested against Jurkat cells for both cellular uptake and mRNA transfection efficiencies, as depicted in FIGS. 17A and 17B respectively. Human Jurkat cells are representative T lymphocytes which are known to be difficult to transfect. The LNPs were tested for cellular uptake using Cy5-labeled eGFP mRNA. Cy5 fluorescent dye was used to determine the cellular uptake while eGFP fluorescence was used to determine the transfection efficiency of the mRNA encapsulated in the different LNP formulations. After 44-hour incubation, fluorescence was measured using a flow cytometer. In Jurkat cells, the cellular uptake was ˜36% for the positive control, SM-102 while the transfection efficiency was ˜91%.

[2] = tested on: human Jurkat T cells; assay: In vitro cellular uptake of Cy5-labeled eGFP mRNA LNPs, flow cytometry; assay type: cell-based; conditions: 44-hour incubation; for cellular uptake efficiency, result in words: compared with the controls
Method: as §1, §2

## CCCCCCCCC(CCCCCC)COC(=O)CCCCCN(CCCCCC(=O)OCC(CCCCCC)CCCCCCCC)CCN(C)C (stereo not shown) [Control 2, 1,1′-bis(2-hexyldecyl) 6,6′-[[2-(dimethylamino)ethyl]imino]bis[hexanoate], reference compound]
[1]
  transfection efficiency: 80%

## CCCCCCCCC(CCCCCC)COC(=O)CCCCCN(CCCCCC(=O)OCC(CCCCCC)CCCCCCCC)CCN(CCO)C1CCC1 (stereo not shown) [Lipid 1]
[1]
  transfection efficiency: 59%

## CCCCCCCCC(CCCCCC)COC(=O)CCCCCN(CCCCCC(=O)OCC(CCCCCC)CCCCCCCC)CCN(CCN(C)C)C1CCC1 (stereo not shown) [Lipid 2, 2-hexyldecyl 6-[(2-{cyclobutyl[2-(dimethylamino)ethyl]amino}ethyl)({6-[(2-hexyldecyl)oxy]-6-oxohexyl})amino]hexanoate]
[1]
  transfection efficiency: 92%
  transfection efficiency, result in words: outperformed the controls
[2]
  cellular uptake efficiency, result in words: outperformed the controls

## CCCCCCCCC(CCCCCC)COC(=O)CCCCCN(CCCCCC(=O)OCC(CCCCCC)CCCCCCCC)CCN(CCCN(C)C)C1CCC1 (stereo not shown) [Lipid 3, 2-hexyldecyl 6-[(2-{cyclobutyl[3-(dimethylamino)propyl]amino}ethyl)({6-[(2-hexyldecyl)oxy]-6-oxohexyl})amino]hexanoate]
[1]
  transfection efficiency: 78%
  transfection efficiency, result in words: outperformed the controls
[2]
  cellular uptake efficiency, result in words: outperformed the controls

## CCCCCCCCCCCOC(=O)CCCCCN(CCO)CCCCCCCC(=O)OC(CCCCCCCC)CCCCCCCC [SM-102, reference compound]
[1]
  transfection efficiency: ~91%
[2]; 100 ng mRNA per well, Cy5 fluorescence, FIG. 17A
  cellular uptake: ~36%
